Patent publication US20260193647A1, “MIRNA-BASED CANCER THERAPY WITH A TUMOR-NAVIGATING PEPTIDE” (The Board of Trustees of the Universities of Illinois, priority 2022, published 2026)
pIC50: −log10 of the molar value.

Key:
[1] = design: species or system mice; conditions: mouse, in vivo
Experimental: Collected samples were fixed with buffered 3.7% formalin (Anatech) for 24 hr. Formalin was replaced with 70% ethanol following fixation. Samples were paraffin-embedded, and blocks were cut into 4 μm-thick sections and mounted onto slides which were processed for H&E staining. H&E-stained slides were analyzed by a pathologist blinded to the experimental groups.
Alanine transaminase (ALT) activity was measured using ALT assay kits (Sigma, #MAK052) and serum aspartate transaminase (AST) activities was measured using AST assay kits (Sigma, #MAK055) following the manufacturer's instructions. Briefly, serum samples at different dilutions, were reacted with ALT or AST reaction mixture and plated on 96-well plate, followed by reading at A450. The final calculations were done by comparing the sample readings with that of standard curve (pyruvate standards for ALT and glutamate standards for AST).

SJ-GBM2 spheroids = assay: SJ-GBM2 tumor spheroids: uptake and structure; assay type: cell-based, human
Experimental: (§1) SJ-GBM2 cells, CHLA-200 cells and astrocytes (2×10^4 cells/well) were cultured on glass slides placed in 24-well plates. After overnight culture, the cells were washed with PBS and incubated with 20 μM Alexa Fluor 568-labeled p28 peptide in medium (5% FBS and without phenol red) for 2 hr at 37° C. Cells were fixed with 2% formalin for 10 min. After washing, slides were prepared and mounted with Vectashield with DAPI (Vector Laboratories, Catalog #94010). Slides were examined by an LSM 710 confocal laser scanning microscope (Zeiss). Images were processed using ZEN software (ZEISS ZEN Lite). As for a GSC marker, the slides were first incubated with Alexa Fluor 568-labeled AmiR20-p28 for 2 hr at 37° C. Cells were fixed with 2% formalin for 10 min. After washing, slides were incubated with blocking buffer for 1 hr at room temperature, followed by consecutive staining with anti-CD133 antibody (1:500, R&D Systems FAB11331G). Slides were washed and mounted with Vectashield containing DAPI. Slides were examined by the LSM 710 confocal laser scanning microscope.
SJ-GBM2 spheroids were formed by self-aggregation of cells in the bottoms of non-adherent round bottom 96-well plates (Thermo Scientific, #174925 96U). Suspensions of 10,000 cells in 100 μl volumes of media were pipetted into individual wells and allowed to form cell-cell connections over the course of 3 days.

[2] = system: SJ-GBM2 cells, CHLA-200 cells and astrocytes; assay: Cellular entry by confocal microscopy; assay type: cell-based, human; conditions: 20 μM Alexa Fluor labeled, 2 hr, 37° C.; pGBM cells vs normal astrocytes
Experimental: p28 or AmiR20-p28 were dissolved in PBS mixed with Alexa Fluor 568 dye (Invitrogen) at a 1:2 peptide/dye ratio 37. Sodium bicarbonate (pH 8.5) was added and incubated at 4° C. with continuous stirring. Alexa Fluor 568 labeled p28 and AmiR20-p28 were dialyzed against cold-PBS using Slide-A-Lyzer Dialysis Cassettes (Pierce Biotechnology). Similarly, p28 was labeled with ICG as described previously.
as §1, with “Slides were examined by the LSM 710 confocal laser scanning microscope.” left out

CHLA-200 cells = assay type: cell-based, human; conditions: 24 hr; read-out: IC50 (cell viability)
Experimental: (§2) Cell viability was evaluated by a CCK-8 assay (Dojindo, Japan). Cells were seeded at a density of 4,000 cells per well in 100 μl of growth medium in 96-well plates and grown overnight. Then, the cells were exposed to antisense miR-20a alone, p28 alone or negative control or AmiR20-p28 over a range of concentrations and incubated for 24 hr. According to the manufacturer's instructions, 10 μl of CCK-8 solution was added to each well, followed by incubation for 1 hr at 37° C. The absorbance at 450 nm was determined by a multiplate reader.
(§3) Cell viability (%)=Abs(sample)−Abs(blank)/Abs(no treatment)−Abs(blank)×100

[3] = system: genes associated with the EGFR, p53 and TGF pathways; assay: qPCR of downstream targets of miR-20a; assay type: cell-based, human; conditions: 10 nM, 24 hr
[4] = system: 3D Human Blood Brain Barrier Model
Experimental: Permeability experiments were carried out in a 3D Human Blood Brain Barrier Model kit (Alphabioregen, Catalog #EP010). The BBB kits were activated following the manufacturer's instructions. Briefly, the BBB model was thawed using BBB growth medium (#BBB-GM001) and incubated overnight with fresh BBB growth medium. The model was incubated with Endo-Neuro-Pharmaceuticals medium (#NMBBB001) for 3 days. AmiR20-p28 was prepared in assay buffer (Dulbecco's PBS containing CaCl2 and MgCl4, 100 mM HEPES, pH 7.0, 25 mM D-glucose). The permeability of AmiR20-p28 was measured in two directions: apical to basolateral (A-B) and basolateral to apical (B-A). The apical side represented the blood, and the basolateral side represented the brain tissue. For transport, the inserts from the BBB wells were transferred to another well containing prewarmed assay buffer. Depending on the direction, the medium in the donor compartment of the BBB model was replaced with AmiR20-p28. The plate was incubated for 30 min at 37° C. Samples were then collected from the donor and acceptor compartments and analyzed by real-time PCR. The concentrations of AmiR20-p28 in the compartments were calculated based on a standard curve developed with AmiR20-p28 at 1, 10, 100 and 1,000 nM and its relative Ct value obtained from real-time PCR. […]

LN-229 cells = assay: CCK-8 cell viability assay, LN-229; assay type: cell-based, human; conditions: 24 hr
Experimental: as §2, §3

miR-20a = miR-20a expression levels by stem loop qPCR in treated cells; assay type: cell-based, human; conditions: 10 nM, 24 hr
Description: Micro RNA enriched fraction was extracted using the miRNeasy Mini Kit (Qiagen, Catalog #217004) following the manufacturer's instructions. Stem loop real-time qPCR was used to analyze miRNA expression. We designed miR-20a stem loop RT primers and amplification primers according to a previously described method 79. cDNA was synthesized from extracted RNA using unique stem loop RT primers. The sequence of the stem loop primer for miR-20a was 5′-[…]-3′ (SEQ ID NO:7). Reverse transcriptase reactions contained the following reagents: 10 ng of RNA sample, 60 nM stem-loop RT primer, 1×RT buffer, 0.25 mM dNTP, and 4 U/μl reverse transcriptase. Reactions were performed by incubation at 16° C. for 30 min, 42° C. for 30 min and 85° C. for 5 min. Real-time PCR (7300 Real time PCR Systems, Applied Biosystems, CA) was performed using the specific forward primer for miR-20a (5′-[…]-3′ (SEQ ID NO:8)) and a universal reverse primer (5′-GTGCA GGGTC CGAGGT-3′ (SEQ ID NO:9)). The 20-μl PCR mixture included 1×SYBR Premix (Invitrogen), 2 μl of RT products and each forward and reverse primer at 10 nM. Reactions were performed by incubation in a 96-well plate at 95° C. for 30 sec, followed by 35 cycles of 95° C. for 30 sec and 60° C. for 30 sec. U6 was used as an internal control to normalize the level of target miRNAs. The results were verified by performing PCR using M13 modified forward and reverse primers specific to stem loop sequence. The PCR products were visualized in 2% agarose gels and DNA-sequence was confirmed. Human tumor and serum samples were obtained from patients who had signed informed consent and the institutional review board approval was obtained in Pediatric Brain Tumor Consortium (PBTC-041) participating sites.

aGBM (LN-229) cells = assay: Annexin V/PI flow cytometric apoptosis assay, aGBM (LN-229); assay type: cell-based, human; conditions: 10 nM, 24 h
Experimental: Cells were seeded into 10-cm dishes and cultured overnight. Then, the cells were treated with 10 nM antisense miR-20a alone, p28 alone or AmiR20-p28 for 24 hr. Cells were washed with 1×PBS, detached with TrypleE (Invitrogen). and collected by centrifugation. Cells were washed and resuspended with 1× Annexin binding buffer (Life Technologies, catalog #V13242), and the cell density was maintained at 10^6 cells/ml. Subsequently, 5 μl of Annexin-V was added to 100 μl of the cell suspension, and the mixture was incubated for 15 min at room temperature. The cells were washed and incubated with 5 μl of PI for an additional 15 min on ice, washed and resuspended in 200 μl of buffer. Cells without treatment were used as controls. After washing, cells were subjected to flow cytometry (Gallios flow cytometer) and analyzed with Kaluza software to give the proportions of dead (top left quadrant), late apoptotic (top right quadrant), early apoptotic (bottom right quadrant) and viable (bottom left quadrant) cells.

AmiR20-p28: BBB-permeable tumor-navigating CPP p28 (Cys-p28) covalently linked to 2′ O-methyl antisense miR-20a (5′-maleimide)
histology of heart, lung, liver, spleen, and kidney [1]: no AmiR20-p28-related differences in histology
adverse effects (hepatotoxicity assay, hemolysis assay, histological examination) ([1]; iv, 1 mg/kg): without apparent adverse effects
structure of the SJ-GBM2 spheroids (SJ-GBM2 spheroids; 10 nM, 24 and 48 h): started to disintegrate at 24 h
uptake in tumor spheroids (SJ-GBM2 spheroids; 20 μM Alexa Fluor-labeled, 2 hr, 37° C.): penetrated the tumor spheroids
cellular entry (confocal images) [2]: preferential entry
pIC50 (CHLA-200 cells): 7.96
EGFR expression levels ([3]; LN-229 cells): decreased EGFR expression levels
expression of p53, p21, Bax and E2F ([3]; LN-229 cells): significantly increased
expression levels of EGFR, Ras, MEK1, ERK1, c-Fos, c-Jun, β-catenin, TCF-1 and Lef1 genes ([3]; SJ-GBM2 and CHLA-200 cells): significantly decreased
expressions of p53, p21, Bax, and E2F ([3]; SJ-GBM2 and CHLA-200 cells): robust increase
gene expression levels ([3]; normal human astrocytes): no significant effect on gene expression levels
efflux Papp (B-A) [4]: 0.95 ×10⁻⁶ cm/s
influx Papp (A-B) [4]: 4.39 ×10⁻⁶ cm/s
pIC50 (LN-229 cells): 6.77
effect on cell viability (LN-229 cells; compared to pGBM): less extensive
miR-20a expression levels reduced by (miR-20a; CHLA-200 cells): 96%
miR-20a expression levels reduced by (miR-20a; LN-229 cells): 84%
miR-20a expression levels reduced by (miR-20a; SJ-GBM2 cells): 94%
miR-20a levels (miR-20a; normal human astrocytes): not significantly altered
apoptotic cells after treatment (aGBM (LN-229) cells): 6.7%
